From patent US9198916B1, “Compounds and methods for treating tumors” (B&G Partners, LLC, priority 2014, dated 2015)
Read-outs that look alike come from different tables or passages of the source.

How the values were obtained:
[1] = target: hERG (human ether-à-go-go-related gene) potassium channel current (Homo sapiens, UniProt Q12809); assay: cell-based
Method: All chemicals used in solution preparation were purchased from Sigma-Aldrich (St. Louis, Mo.) unless otherwise noted and were of ACS reagent grade purity or higher.
The duration of exposure to each test article concentration was 3 minutes.

[2] = Repeated dose intraperitoneal (IP) BID study in mice, plasma concentration by LC-MS/MS and PK fit; design: species or system female CD-1 mice; conditions: female, CD-1, mouse, in vivo, fitted, repeated-dose single-compartment first-order absorption model, 10 mg/kg IP BID; for half-life: ip, 10 mg/kg
Method: A total of 204.47 mg of the compound of Example 1 was weighed out in a sterile vial on an analytical balance, and a 10.22 ml volume of sterile DMSO containing 5% by volume sterile Tween 80 was added to the vial under a Class II sterile hood and mixed until fully dissolved to produce a 20 mg/ml stock solution of the compound of Example 1. The stock solution was split into 1.2 ml aliquots in sterile glass vials and stored frozen at −80° C.
Sterile 1.0 mg/ml injection solution of the compound of Example 1 was formulated in normal saline containing 4.75% DMSO and 0.25% Tween 80. A visible precipitate formed without the addition of at least 0.1% Tween 80. The injection solution was prepared by thawing one aliquot of sterile 20 mg/ml stock solution, and adding 0.526 cc of stock solution to a 10 ml sterile vial of USP 0.9% sodium chloride for injection (Hospira) to yield the desired concentrations of 1.0 mg/ml o the compound of Example 1, 4.75% DMSO, and 0.25% Tween 80. The injection solution was gently mixed until fully dissolved. […] Injection solution was stored at 4° C. for up to five days after preparation, after which it was considered expired and discarded.
A total of 16 female CD-1 mice with an age of approximately 8-10 weeks (25-30 g) were used in this repeated dosing study. Each animal was weighed on the days 1, 4, 8, 11, and 15 during treatment. A 10 mg/kg dose of the compound of Example 1 was provided by IP injection of 10 ml/kg of 1.0 mg/ml injection solution to each animal every 12.0±0.5 hr. The injection solution was removed from the refrigerator and allowed to warm at room temperature for several minutes. The septum of the injection solution was wiped with sterile alcohol, and animals received 10 ml/kg by individual insulin syringes (one syringe per animal per injection), with the injection volume calculated using the most recent weighing for each individual animal. IP injections were staggered between the left and right side of the abdomen from one dosing to the next. […] The injection solution was returned to refrigerated storage after the last animal. […]

Sequence of hERG (human ether-à-go-go-related gene) potassium channel current (Q12809 whole entry): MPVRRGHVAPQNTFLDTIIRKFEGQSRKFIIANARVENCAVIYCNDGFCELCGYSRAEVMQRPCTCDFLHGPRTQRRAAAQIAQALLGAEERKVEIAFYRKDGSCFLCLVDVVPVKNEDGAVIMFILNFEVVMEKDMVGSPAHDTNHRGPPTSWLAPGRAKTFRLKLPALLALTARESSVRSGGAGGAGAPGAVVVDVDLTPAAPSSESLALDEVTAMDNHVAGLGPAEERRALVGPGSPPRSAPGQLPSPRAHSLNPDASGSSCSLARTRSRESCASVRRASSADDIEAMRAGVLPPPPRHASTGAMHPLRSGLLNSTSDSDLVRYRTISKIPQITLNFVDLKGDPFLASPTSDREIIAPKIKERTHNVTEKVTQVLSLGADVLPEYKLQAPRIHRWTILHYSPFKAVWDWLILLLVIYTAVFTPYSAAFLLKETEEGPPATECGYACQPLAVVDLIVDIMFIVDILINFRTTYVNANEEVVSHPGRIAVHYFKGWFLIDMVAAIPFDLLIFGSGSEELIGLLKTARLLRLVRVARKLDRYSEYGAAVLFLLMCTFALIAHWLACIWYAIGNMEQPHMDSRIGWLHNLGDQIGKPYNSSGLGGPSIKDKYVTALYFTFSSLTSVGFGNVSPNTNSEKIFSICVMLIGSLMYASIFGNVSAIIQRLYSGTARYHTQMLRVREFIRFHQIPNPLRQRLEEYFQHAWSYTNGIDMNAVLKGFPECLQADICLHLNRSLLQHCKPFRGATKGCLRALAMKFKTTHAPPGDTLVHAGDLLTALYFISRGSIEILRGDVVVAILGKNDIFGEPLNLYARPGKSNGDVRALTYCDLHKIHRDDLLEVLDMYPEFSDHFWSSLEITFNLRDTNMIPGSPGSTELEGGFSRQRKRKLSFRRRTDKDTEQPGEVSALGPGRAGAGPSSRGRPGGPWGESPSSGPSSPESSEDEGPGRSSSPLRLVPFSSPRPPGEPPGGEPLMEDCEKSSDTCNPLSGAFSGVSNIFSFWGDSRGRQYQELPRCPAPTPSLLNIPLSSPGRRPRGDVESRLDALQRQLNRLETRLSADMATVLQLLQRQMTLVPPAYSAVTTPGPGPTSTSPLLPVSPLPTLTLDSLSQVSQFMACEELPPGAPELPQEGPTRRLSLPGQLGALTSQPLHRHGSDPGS

**Q.** With `CSc1ccc2c(c1)N(CCC1CCCCN1)c1ccccc1S2.Cl` (stereo not shown) [Example 1, 2-(methylsulfanyl)-10-[2-(piperidin-2-yl)ethyl]-10H-phenothiazine hydrochloride] as the compound, how does the IC50 [1] read?
**A.** 1550 nM

**Q.** And the Vd/F ([2]; read-out: apparent volume of distribution (V/F))?
**A.** 8 L/kg

**Q.** And the half-life ([2]; read-out: absorption half-life (converted))?
**A.** 0.48 h

**Q.** And the half-life ([2]; read-out: elimination half-life (converted))?
**A.** 14.7 h
